Source: paper PMC12472512, “Design, Synthesis, In Silico Docking, Multitarget Bioevaluation and Molecular Dynamic Simulation of Novel Pyrazolo[3,4-d]Pyrimidinone Derivatives as Potential In Vitro and In Vivo Anti-Inflammatory Agents” (Pharmaceuticals, 2025)
Entries after “also recorded” stand apart in the source; their conditions may differ.

Tests used:
COX-2 = tested on: COX-2; parameters: method as in PMID 19479756; conditions: cited from earlier work
IL-6 = experiment: ELISA of serum IL-6 in carrageenan-treated mice; type: in vivo; conditions: 50 mg/kg; carrageenan-treated mice at 3 h
Experimental: Therefore, the anti-inflammatory activity of the tested compounds may hinge on their ability to suppress the pro-inflammatory TNF-α and IL-6 levels.
All mice were sacrificed under anesthesia using ketamine/xylazine (50/15 mg/kg). Blood was collected for the ELISA assays to determine the levels of cytokines TNF-α and IL-6 using the Rat IL6 (Interleukin 6) ELISA Kit and Rat TNFα ELISA Kit (MyBioSource, San Diego, CA, USA), in accordance with the manufacturer’s instructions. The quantitative sandwich enzyme immunoassay technique is the fundamental principle of the TNF-α assay. A microplate was pre-coated with an antibody specific for TNF-α. Standards and samples were pipetted into the wells, and the immobilized antibody bound to any TNF-α that was present. A biotin-conjugated antibody that was specific for TNF-α was introduced to the wells after any unbound substances were removed. Horseradish peroxidase (HRP) conjugated with avidin was introduced to the wells subsequent to the cleaning process. After a wash to eliminate any unbound avidin–enzyme reagent, a substrate solution was introduced to the wells, and the color developed in proportion to the quantity of TNF-α bound in the initial step. The color development was halted, and the color intensity was quantified. Additionally, the Sandwich enzyme immunoassay is the test principle utilized for IL-6. The microtiter plates included in this preparation were pre-coated with an antibody that was specific to Rat IL6. A biotin-conjugated antibody specific to Rat IL6 was then added to the appropriate microtiter plate wells along with standards or samples. Subsequently, each microplate well was incubated with avidin conjugated to horseradish peroxidase (HRP). […] The addition of sulfuric acid solution terminated the enzyme–substrate reaction, and the color change was observed spectrophotometrically at a wavelength of 450 nm ± 10 nm. The concentration of Rat IL6 in the samples was subsequently determined by comparing the OD of the samples to the standard curve. […]

TNF-α = experiment: ELISA of serum TNF-α in carrageenan-treated mice; type: in vivo; conditions: 50 mg/kg; carrageenan-treated mice at 3 h; compared to the control group
Experimental: To evaluate the anti-inflammatory mechanisms of these compounds, two key chemical mediators, TNF-α and IL-6, were assessed using enzyme-linked immunosorbent assay (ELISA).
All mice were sacrificed under anesthesia using ketamine/xylazine (50/15 mg/kg). Blood was collected for the ELISA assays to determine the levels of cytokines TNF-α and IL-6 using the Rat IL6 (Interleukin 6) ELISA Kit and Rat TNFα ELISA Kit (MyBioSource, San Diego, CA, USA), in accordance with the manufacturer’s instructions. The quantitative sandwich enzyme immunoassay technique is the fundamental principle of the TNF-α assay. A microplate was pre-coated with an antibody specific for TNF-α. Standards and samples were pipetted into the wells, and the immobilized antibody bound to any TNF-α that was present. A biotin-conjugated antibody that was specific for TNF-α was introduced to the wells after any unbound substances were removed. Horseradish peroxidase (HRP) conjugated with avidin was introduced to the wells subsequent to the cleaning process. After a wash to eliminate any unbound avidin–enzyme reagent, a substrate solution was introduced to the wells, and the color developed in proportion to the quantity of TNF-α bound in the initial step. The color development was halted, and the color intensity was quantified. Additionally, the Sandwich enzyme immunoassay is the test principle utilized for IL-6. The microtiter plates included in this preparation were pre-coated with an antibody that was specific to Rat IL6. A biotin-conjugated antibody specific to Rat IL6 was then added to the appropriate microtiter plate wells along with standards or samples. Subsequently, each microplate well was incubated with avidin conjugated to horseradish peroxidase (HRP). […] The addition of sulfuric acid solution terminated the enzyme–substrate reaction, and the color change was observed spectrophotometrically at a wavelength of 450 nm ± 10 nm. The concentration of Rat IL6 in the samples was subsequently determined by comparing the OD of the samples to the standard curve.
Blood was collected immediately following the decapitation of mice, performed in accordance with the institutional animal care and use committee (IACUC) guidelines. After decapitation, whole blood was allowed to flow freely and was collected directly into EDTA and heparinized tubes. The whole blood was centrifuged at 3000× g for 10 min at 4 °C, and the plasma was carefully collected and stored at –80 °C until further analysis.

gastric mucosa = experiment: Histopathological examination of stomach sections (H&E)
COX-1 = biological target: T1, COX-1 (Ovis aries, UniProt P05979); experiment: In vitro COX-1 inhibition, fluorescent inhibitor screening assay kit
T1 sequence (P05979 25-600): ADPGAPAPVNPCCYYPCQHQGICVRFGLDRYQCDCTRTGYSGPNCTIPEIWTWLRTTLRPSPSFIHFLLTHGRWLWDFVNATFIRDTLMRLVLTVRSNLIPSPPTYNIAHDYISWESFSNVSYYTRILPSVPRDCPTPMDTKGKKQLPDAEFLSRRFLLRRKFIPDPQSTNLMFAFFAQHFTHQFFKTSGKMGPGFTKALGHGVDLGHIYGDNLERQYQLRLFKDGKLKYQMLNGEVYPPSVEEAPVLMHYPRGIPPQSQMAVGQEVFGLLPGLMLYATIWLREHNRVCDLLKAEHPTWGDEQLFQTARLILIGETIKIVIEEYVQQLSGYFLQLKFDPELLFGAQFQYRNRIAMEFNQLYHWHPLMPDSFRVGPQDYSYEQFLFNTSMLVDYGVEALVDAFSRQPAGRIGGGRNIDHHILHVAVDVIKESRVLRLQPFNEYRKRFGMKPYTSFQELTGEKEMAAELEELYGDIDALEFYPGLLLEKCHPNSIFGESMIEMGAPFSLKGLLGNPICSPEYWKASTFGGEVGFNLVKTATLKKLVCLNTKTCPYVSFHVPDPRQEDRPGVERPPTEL
Experimental: (§1) Test compounds, dissolved in DMSO, and were pre-incubated with the enzymes at 37 °C for 5 min before initiating the reaction with 1 mM arachidonic acid under light-protected conditions. The fluorescence was measured using a multi-well spectrophotometer (fluorescence plate reader). […] The percentage inhibition was calculated by comparing the absorbance values of the compounds to the vehicle control.
(§2) This protocol utilizes a colorimetric assay to measure the peroxidase activity of Prostaglandin G/H
(§3) Synthase (COX enzyme). The COX enzyme converts Arachidonic Acid (AA) to Prostaglandin G2
(§4) (PGG2), which is then reduced to Prostaglandin H2 (PGH2) by the inherent peroxidase activity.
(§5) peroxidase reaction co-oxidizes a chromogen, such as N,N,N',N'-Tetramethyl-p-phenylenediamine
(§6) (TMPD), resulting in a colored product that can be measured spectrophotometrically at 590-630 nm.
(§7) inhibition of COX enzyme by a test compound reduces the formation of this colored product, allowing
(§8) for the calculation of percentage inhibition and subsequent IC50 values.
(§9) o Ovine COX-1 (purified, commercially available)
(§10) • Substrate: Arachidonic Acid (AA). Prepare a stock solution in ethanol. Note: AA is unstable;
(§11) aliquot and store under inert gas (e.g., Argon) at -80°C.
(§12) • Cofactor: Hemin. Prepare a stock solution in DMSO.
(§13) • Chromogen: N,N,N',N'-Tetramethyl-p-phenylenediamine (TMPD) dihydrochloride.
(§14) • Assay Buffer: 100 mM Tris-HCl buffer, pH 8.0. May contain 1-5 mM EDTA and 1-2 µM
Phenol (acts as a cofactor for COX-2).
(§15) • Solvents: Dimethyl Sulfoxide (DMSO), Ethanol (absolute).
(§16) consistent across all wells (typically ≤1% final concentration).
o Keep all dilutions on ice.
(§17) o COX-1 Working Solution: Dilute ovine COX-1 in ice-cold assay buffer to a final
(§18) concentration of ~50-100 U/mL. Add Hemin to a final concentration of 1 µM.
(§19) o Note: The exact enzyme units (U) required must be determined by a preliminary activity
(§20) test to ensure the reaction is linear and within the dynamic range of the assay.
(§21) Substrate/Chromogen Solution (Prepare Fresh):
(§22) o To a tube containing assay buffer, add TMPD to a final concentration of 0.2-0.5 mM.
(§23) o Add Arachidonic Acid to a final concentration of 100 µM. Vortex gently.
(§24) o Keep this solution protected from light and on ice until use.
(§25) Assay Setup (Performed in duplicate or triplicate)

[1] = tested on: carrageenan-induced paw edema; experiment: In vivo carrageenan-induced paw edema; conditions: 50 mg/kg oral, mice
human recombinant COX-2 = biological target: T2, human recombinant COX-2 (Homo sapiens, UniProt P35354); experiment: In vitro COX-2 inhibition, fluorescent inhibitor screening assay kit
T2 sequence (P35354 18-604): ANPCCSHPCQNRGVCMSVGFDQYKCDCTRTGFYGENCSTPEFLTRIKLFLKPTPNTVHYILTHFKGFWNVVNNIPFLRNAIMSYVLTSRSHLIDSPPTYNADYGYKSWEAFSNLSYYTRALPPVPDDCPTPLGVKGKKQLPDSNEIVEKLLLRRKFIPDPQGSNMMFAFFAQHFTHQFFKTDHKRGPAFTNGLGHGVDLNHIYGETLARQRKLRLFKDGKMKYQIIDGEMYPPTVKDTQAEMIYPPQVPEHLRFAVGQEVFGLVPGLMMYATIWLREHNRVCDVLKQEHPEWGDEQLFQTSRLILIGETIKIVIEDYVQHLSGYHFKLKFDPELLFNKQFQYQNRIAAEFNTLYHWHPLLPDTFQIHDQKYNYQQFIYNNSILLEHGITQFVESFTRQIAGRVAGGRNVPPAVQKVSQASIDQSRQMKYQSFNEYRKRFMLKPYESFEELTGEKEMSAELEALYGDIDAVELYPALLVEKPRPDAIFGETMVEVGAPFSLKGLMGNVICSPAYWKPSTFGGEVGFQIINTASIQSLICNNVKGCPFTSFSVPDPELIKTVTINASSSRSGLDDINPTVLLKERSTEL
Experimental: as §1, §2, §3, §4, §5, §6, §7, §8, §9, §10, §11, §12, §13, §14
Phenol (acts as a cofactor for COX-2).
as §15, §16
o Keep all dilutions on ice.
as §17, §18, §19, §20, §21, §22, §23, §24, §25

Structure (SMILES): O=C(NCc1ccccc1)c1nc2c(cnn2-c2ccccc2)c(=O)[nH]1 [II]
- IC50 (COX-2): 23.8 µM

Structure (SMILES): O=C(Nn1cnc2c(cnn2-c2ccccc2)c1=O)c1ccccc1 [Compound I]
- IC50 (COX-2): 78.9 µM

Structure (SMILES): CC(=NO)c1ccc(NC(=O)Cn2cnc3c(cnn3-c3ccccc3)c2=O)cc1 [Compound 5m, N-(4-(1-(Hydroxyimino)Ethyl)Phenyl)-2-(4-Oxo-1-Phenyl-1,4-Dihydro-5H-Pyrazolo[3,4-d]Pyrimidin-5-yl) Acetamide]
- IL-6 levels in serum (IL-6): significantly reduced
- TNF-α levels in serum (TNF-α): significantly reduced
- histological structure of the gastric mucosa (gastric mucosa; stomach sections stained with H&E; 50 mg/kg): normal histological structure of the gastric mucosa
- IC50 (COX-1): 57.3 ± 1.93 µM
- COX1 %inh (COX-1; conc 0.01 (uM)): 0.27%
- COX1 %inh (COX-1; conc 0.1 (uM)): 6.51%
- COX1 %inh (COX-1; conc 1 (uM)): 12.3%
- COX1 %inh (COX-1; conc 10 (uM)): 24.6%
- COX1 %inh (COX-1; conc 100 (uM)): 69.2%
- Percentage of inhibition of carrageenan-induced paw edema ([1]; 1 h): 3.43%
- Percentage of inhibition of carrageenan-induced paw edema ([1]; 2 h, 50 mg/kg): 58.01%
- Percentage of inhibition of carrageenan-induced paw edema ([1]; 3 h): 39.85%
- IC50 (human recombinant COX-2): 2.34 ± 0.08 µM
- SI, in vitro COX-2 selectivity index (COX-1 IC50/COX-2 IC50) (human recombinant COX-2): 24.47
- COX2 %inh (human recombinant COX-2; conc 0.1 (uM)): -448%
- COX2 %inh (human recombinant COX-2; conc 1 (uM)): -273%
- COX2 %inh (human recombinant COX-2; conc 10 (uM)): -103%
- COX2 %inh (human recombinant COX-2; conc 100 (uM)): 46.6%

Structure (SMILES): O=C(Cn1cnc2c(cnn2-c2ccccc2)c1=O)Nc1ccc2ccccc2c1 [Compound 5j, N-(Naphthalen-2-yl)-2-(4-Oxo-1-Phenyl-1,4-Dihydro-5H-Pyrazolo[3,4-d]Pyrimidin-5-yl) Acetamide]
- IL-6 levels in serum (IL-6): significantly reduced; also recorded: highest inhibition of IL-6 levels, approaching normal levels
- TNF-α levels in serum (TNF-α): significantly reduced
- histological structure of the gastric mucosa (gastric mucosa; stomach sections stained with H&E, 50 mg/kg): preserved gastric tissue integrity; also recorded: intact gastric tissue; also recorded: normal histological structure of the gastric mucosa
- IC50 (COX-1): 6.4 ± 0.22 µM
- COX1 %inh (COX-1; conc 0.01 (uM)): 1.32%
- COX1 %inh (COX-1; conc 0.1 (uM)): 7.85%
- COX1 %inh (COX-1; conc 1 (uM)): 19.2%
- COX1 %inh (COX-1; conc 10 (uM)): 57.9%
- COX1 %inh (COX-1; conc 100 (uM)): 80.1%
- Percentage of inhibition of carrageenan-induced paw edema ([1]; 1 h): 28.35%
- Percentage of inhibition of carrageenan-induced paw edema ([1]; 2 h): 50.13%
- Percentage of inhibition of carrageenan-induced paw edema ([1]; 3 h, 50 mg/kg): 62.41%
- IC50 (human recombinant COX-2): 0.398 ± 0.014 µM
- SI, in vitro COX-2 selectivity index (COX-1 IC50/COX-2 IC50) (human recombinant COX-2): 16.09
- COX2 %inh (human recombinant COX-2; conc 0.01 (uM)): -425%
- COX2 %inh (human recombinant COX-2; conc 0.1 (uM)): -285%
- COX2 %inh (human recombinant COX-2; conc 1 (uM)): -103%
- COX2 %inh (human recombinant COX-2; conc 10 (uM)): 9.91%
- COX2 %inh (human recombinant COX-2; conc 100 (uM)): 54.8%
